In paper PMC13164762, “Development and Validation of an LC-MS/MS Method for the Quantitation of JNJ-64619178 (JNJ) in Mouse Plasma: Characterization of In Vitro and In Vivo Pharmacokinetic Properties” (Molecules, 2026):
Where “and” joins values, the source holds several entries; their conditions need not be identical. Identical values can stand only once. Like-named read-outs stand apart in the source and are kept apart here.

Tests used:
[1] = Biodistribution and brain penetration after PO dose; assay type: in vivo, balb/c mice; conditions: for concentration at 2 h / concentration at 8 h / concentration at 24 h: po
Method: Mouse plasma and tissue samples (liver, spleen, kidney, lung and brain) were prepared following the SPE procedure. Collected tissues were homogenized using Tissue Lyser II purchased from Qiagen Science, KY, after adding four times as much water as the tissue mass. For calibration standards and QC sample preparation, the 10 µL working stock and IS were spiked into 100 µL mouse plasma or tissue homogenates (liver, spleen, kidney, lung, and brain). After vortexing for 30 s on a Mixmate (Eppendorf North America, Enfield, CT, USA), samples were diluted with 600 µL of 5% formic acid and vortexed again at 1000 rpm for 2 min. Samples were centrifuged at 956× g for 10 min to get a clear sample that was not prone to blocking the cartridge during the SPE. Extraction was initiated by conditioning the cartridge (Oasis HLB 1 cc, Waters, Millford, MA, USA) with 1 mL of methanol, followed by a second conditioning with 1 mL of water. Then, the above-prepared samples were loaded into the cartridge and allowed to pass through the cartridge. Next, the cartridge was washed with 1 mL 15% methanol and dried for 1 min prior to the elution. For final elution, 500 µL 5% ammonium hydroxide in acetonitrile was eluted through the cartridges twice. Collected eluates were dried in a nitrogen dryer and reconstituted with 200 µL of mobile phase. Reconstituted samples were centrifuged at 956× g for 10 min, 150 µL supernatants were collected, and 5 µL was injected for LC-MS/MS.
For the oral PK study, male balb/C mice were grouped into two groups, with n = 4 for each group. Throughout the experiment, mice had free access to adequate food and water. The oral solution comprised 20% (v/v) polyethylene glycol 400, 10% (v/v) propylene glycol, 10% (v/v) ethanol, 2% (v/v) DMSO, 5% cremophore, and water as the rest of the volume. For the IV dose administration, 12 male balb/C mice were used in the study, divided into two groups. The IV solution used the same composition as the oral study. Doses of 10 and 2.5 mg kg^−1 were used for oral and IV routes, respectively. Blood samplings were done at 5 min, 15 min, 30 min, 1 h, 2 h, 4 h, 8 h, and 24 h. After collection, blood samples were centrifuged immediately at 956× g for 10 min, and plasma was separated in an Eppendorf tube and stored at −80 °C until processed. In the oral PK study, tissues—liver, kidney, spleen, lung, and brain—were collected at 2, 8, and 24 h to assess the biodistribution pattern of JNJ in the oral route.

[2] = Blood-to-plasma ratio (Rb/p) study; assay type: in vitro ADME; conditions: balb/c mouse whole blood
Method: Freshly collected whole blood (400 µL) of balb/c mice was taken into an Eppendorf tube, and JNJ was spiked to obtain a final concentration at 5 µg mL^−1 following proper mixing. Blood and plasma samples were collected at 0, 30, and 60 min and processed using the previously described extraction procedure. Rb/p was then estimated by dividing the JNJ concentration in blood by the concentration obtained in plasma samples separated from blood using Equation (5), where CBlood is the drug concentration in blood and CPlasma is the drug concentration in plasma.(7) Rb/p=CBlood/CPlasma

[3] = In vivo PK study (plasma, IV and PO); parameters: species or system balb/c mice; conditions: for half-life: read-out: t1/2 (terminal half-life) (converted)
Method: We performed in vivo PK analysis for JNJ by 2.5 mg kg^−1 IV and 10 mg kg^−1 PO routes of administration in healthy male balb/c mice. We could quantify a dynamic range of concentrations in in vivo PK samples with our established LC-MS/MS method. Non-compartmental analysis (NCA) was performed using Phoenix software version 8.3 to estimate PK parameters from the observed plasma concentration–time profile data. […] The NCA PK parameter data are represented in Table 6. For the oral PK study, male balb/C mice were grouped into two groups, with n = 4 for each group. Throughout the experiment, mice had free access to adequate food and water. The oral solution comprised 20% (v/v) polyethylene glycol 400, 10% (v/v) propylene glycol, 10% (v/v) ethanol, 2% (v/v) DMSO, 5% cremophore, and water as the rest of the volume. For the IV dose administration, 12 male balb/C mice were used in the study, divided into two groups. The IV solution used the same composition as the oral study. Doses of 10 and 2.5 mg kg^−1 were used for oral and IV routes, respectively. Blood samplings were done at 5 min, 15 min, 30 min, 1 h, 2 h, 4 h, 8 h, and 24 h. After collection, blood samples were centrifuged immediately at 956× g for 10 min, and plasma was separated in an Eppendorf tube and stored at −80 °C until processed. In the oral PK study, tissues—liver, kidney, spleen, lung, and brain—were collected at 2, 8, and 24 h to assess the biodistribution pattern of JNJ in the oral route.

[4] = male, mouse, IV 2.5 mg kg^−1, balb/c mice, plasma, n = 6
[5] = male, mouse, PO 10 mg kg^−1, balb/c mice, plasma, n = 4

With `Nc1nc2cc(CC[C@H]3C[C@@H](n4ccc5c(N)ncnc54)[C@H](O)[C@@H]3O)ccc2cc1Br` [JNJ, JNJ-64619178] the “Brain Content” value ([1]; 2 h after single PO 10 mg kg^−1, balb/c mice, n = 4) was 55 ng/g, the “Brain Content” value ([1]; 8 h after single PO 10 mg kg^−1, balb/c mice, n = 4) was 34 ng/g and the “Brain Content” value ([1]; 24 h after single PO 10 mg kg^−1, balb/c mice, n = 4) was 23 ng/g. The “unbound plasma and brain concentrations/contents, fold lower than in vitro IC50” value ([1]; across all time points, PO 10 mg kg^−1) was “more than 20 fold”, the concentration at 2 h ([1]; male, BALB/c, mouse, brain, 10 mg kg^−1, 2 h, PO 10 mg kg^−1, estimated with fu,brain = 0.057, read-out: Unbound Brain Content) was 3.1 ng/g and the concentration at 2 h ([1]; male, BALB/c, mouse, brain, 10 mg kg^−1, 2 h after single PO 10 mg kg^−1, balb/c mice, n = 4, read-out: Brain Content) was 55 ± 27 ng/g. It also gave a concentration at 8 h ([1]; male, BALB/c, mouse, brain, 10 mg kg^−1, 8 h, PO 10 mg kg^−1, estimated with fu,brain = 0.057, read-out: Unbound Brain Content) of 1.9 ng/g, a concentration at 8 h ([1]; male, BALB/c, mouse, brain, 10 mg kg^−1, 8 h after single PO 10 mg kg^−1, balb/c mice, n = 4, read-out: Brain Content) of 34 ± 1 ng/g and a concentration at 24 h ([1]; male, BALB/c, mouse, brain, 10 mg kg^−1, 24 h, PO 10 mg kg^−1, estimated with fu,brain = 0.057, read-out: Unbound Brain Content) of 1.3 ng/g. It also gave a concentration at 24 h ([1]; male, BALB/c, mouse, brain, 10 mg kg^−1, 24 h after single PO 10 mg kg^−1, balb/c mice, n = 4, read-out: Brain Content) of 23 ± 3 ng/g, a concentration at 8 h ([1]; male, BALB/c, mouse, kidney, 10 mg kg^−1, 8 h after single PO 10 mg kg^−1, balb/c mice, n = 4, read-out: Content, Kidney) of 474 ± 131 ng/g and a concentration at 24 h ([1]; male, BALB/c, mouse, kidney, 10 mg kg^−1, 24 h after single PO 10 mg kg^−1, balb/c mice, n = 4, read-out: Content, Kidney) of 56 ± 27 ng/g. It also gave a concentration at 8 h ([1]; male, BALB/c, mouse, liver, 10 mg kg^−1, 8 h after single PO 10 mg kg^−1, balb/c mice, n = 4, read-out: Content, Liver) of 1190 ± 167 ng/g, a concentration at 24 h ([1]; male, BALB/c, mouse, liver, 10 mg kg^−1, 24 h after single PO 10 mg kg^−1, balb/c mice, n = 4, read-out: Content, Liver) of 52 ± 31 ng/g and a concentration at 2 h ([1]; male, BALB/c, mouse, lung, 10 mg kg^−1, 2 h after single PO 10 mg kg^−1, balb/c mice, n = 4, read-out: Content, Lung) of 2570 ± 550 ng/g. The concentration at 8 h ([1]; male, BALB/c, mouse, lung, 10 mg kg^−1, 8 h after single PO 10 mg kg^−1, balb/c mice, n = 4, read-out: Content, Lung) was 599 ± 91 ng/g, the concentration at 24 h ([1]; male, BALB/c, mouse, lung, 10 mg kg^−1, 24 h after single PO 10 mg kg^−1, balb/c mice, n = 4, read-out: Content, Lung) was 45 ± 25 ng/g and the concentration at 2 h ([1]; male, BALB/c, mouse, plasma, 10 mg kg^−1, 2 h, PO 10 mg kg^−1, balb/c mice, read-out: Plasma Concentration) was 1470 ng/mL. It also gave a concentration at 2 h ([1]; male, BALB/c, mouse, plasma, 10 mg kg^−1, 2 h, PO 10 mg kg^−1, estimated with fu,plasma = 0.025, read-out: Unbound Plasma Concentration) of 37 ng/mL, a concentration at 8 h ([1]; male, BALB/c, mouse, plasma, 10 mg kg^−1, 8 h, PO 10 mg kg^−1, balb/c mice, read-out: Plasma Concentration) of 93 ng/mL and a concentration at 8 h ([1]; male, BALB/c, mouse, plasma, 10 mg kg^−1, 8 h, PO 10 mg kg^−1, estimated with fu,plasma = 0.025, read-out: Unbound Plasma Concentration) of 2.3 ng/mL. It also gave a concentration at 24 h ([1]; male, BALB/c, mouse, plasma, 10 mg kg^−1, 24 h, PO 10 mg kg^−1, balb/c mice, read-out: Plasma Concentration) of 1.6 ng/mL, a concentration at 24 h ([1]; male, BALB/c, mouse, plasma, 10 mg kg^−1, 24 h, PO 10 mg kg^−1, estimated with fu,plasma = 0.025, read-out: Unbound Plasma Concentration) of 0.04 ng/mL and a concentration at 2 h ([1]; male, BALB/c, mouse, spleen, 10 mg kg^−1, 2 h after single PO 10 mg kg^−1, balb/c mice, n = 4, read-out: Content, Spleen) of 1900 ± 220 ng/g. The concentration at 8 h ([1]; male, BALB/c, mouse, spleen, 10 mg kg^−1, 8 h after single PO 10 mg kg^−1, balb/c mice, n = 4, read-out: Content, Spleen) was 643 ± 58 ng/g, the concentration at 24 h ([1]; male, BALB/c, mouse, spleen, 10 mg kg^−1, 24 h after single PO 10 mg kg^−1, balb/c mice, n = 4, read-out: Content, Spleen) was 95 ± 25 ng/g and the concentration at 2 h ([1]; male, balb/c, mouse, kidney, 10 mg kg^−1, 2 h after single PO 10 mg kg^−1, balb/c mice, n = 4, read-out: Content, Kidney) was 2950 ± 822 ng/g. It also gave a concentration at 2 h ([1]; male, balb/c, mouse, liver, 10 mg kg^−1, 2 h after single PO 10 mg kg^−1, balb/c mice, n = 4, read-out: Content, Liver) of 6070 ± 1500 ng/g, a Kp uu at 2 h ([1]; male, mouse, brain, 2 h, PO 10 mg kg^−1, balb/c mice, read-out: Kp,uu,brain (unbound brain-to-plasma partition coefficient)) of 0.08 and a Kp uu at 8 h ([1]; male, mouse, brain, 8 h, PO 10 mg kg^−1, balb/c mice, read-out: Kp,uu,brain (unbound brain-to-plasma partition coefficient)) of 0.82. For the same molecule, the Kp uu at 24 h ([1]; male, mouse, brain, 24 h, PO 10 mg kg^−1, balb/c mice, read-out: Kp,uu,brain (unbound brain-to-plasma partition coefficient)) was 33.3, the blood plasma ratio at 5 µg mL^−1 [2] was ~0.7 and the “underestimation of observed plasma clearance by predicted hepatic clearance” value ([3]; 1.6 vs 3.8 mL min^−1 kg^−1, mice) was “approximately 2.3 fold”. For the same molecule, the “in vivo clearance as % of mice hepatic blood flow” value ([3]; IV, hepatic blood flow 3.6 L h^−1 kg^−1) was ~6%, the “volume of distribution relative to total body water” value ([3]; IV, total body water 68.6% of body weight) was ~ 1.6 times and the “CL (plasma clearance)” value ([3]; PO 10 mg kg^−1, balb/c mice, oral CL normalized by bioavailability (%)) was 3.83 ± 0.67 mL/min/kg. For the same molecule, the “Vz (volume of distribution)” value ([3]; PO 10 mg kg^−1, balb/c mice, oral Vz normalized by bioavailability (%)) was 0.88 ± 0.32 L/kg, the Tmax ([3]; PO 10 mg kg^−1, mice, plasma) was ~ 30 min and the “Cmax relative to IC50 in the HD-MB cell line” value ([3]; PO 10 mg kg^−1, times higher than IC50 (821 ng mL^−1)) was ~ 3 times. For the same molecule, the clearance ([3]; male, balb/c, mouse, plasma, 2.5 mg kg^−1, IV, equivalent to 0.23 L h^−1 kg^−1, read-out: observed plasma clearance) was 3.8 mL/min/kg, the Tmax ([3]; male, balb/c, mouse, plasma, iv, 2.5 mg/kg, IV 2.5 mg kg^−1, balb/c mice, plasma, n = 6, read-out: Tmax (converted)) was 6.6 ± 4.8 min and the Tmax ([3]; male, balb/c, mouse, plasma, po, 10 mg/kg, PO 10 mg kg^−1, balb/c mice, plasma, n = 4, read-out: Tmax (converted)) was 25.2 ± 8.4 min. The Tmax ([3]; male, balb/c, mouse, plasma, po, 10 mg/kg, PO 10 mg kg^−1, mice, plasma, read-out: Tmax (converted)) was 30 min, the clearance ([3]; male, mouse, plasma, IV 2.5 mg kg^−1, balb/c mice, n = 6, read-out: CL (plasma clearance) (converted)) was 3.83 mL/min/kg and the Vd ([3]; male, mouse, plasma, IV 2.5 mg kg^−1, balb/c mice, n = 6, read-out: Vz (volume of distribution)) was 1.2 ± 0.7 L/kg. For the same molecule, the half-life ([3]; male, mouse, plasma, IV 2.5 mg kg^−1, balb/c mice, n = 6) was 198 ± 66 min, the half-life ([3]; male, mouse, plasma, PO 10 mg kg^−1, balb/c mice, n = 4) was 156 ± 42 min and the bioavailability ([3]; male, mouse, plasma, PO 10 mg kg^−1 vs IV 2.5 mg kg^−1, balb/c mice) was ~15% and 15%. For the same molecule, the AUC [3, 4] was 11600 ng·h/mL, the Cmax [3, 4] was 4940 ± 1220 ng/mL and the AUC [3, 5] was 6800 ± 1270 ng·h/mL. The Cmax [3, 5] was 2780 ± 1030 ng/mL.
